Measurements from ChEMBL document CHEMBL3112529, “Synthesis of a C-phosphonate mimic of maltose-1-phosphate and inhibition studies on Mycobacterium tuberculosis GlgE” (Bioorg Med Chem, 2014).

Molecular target: T1, Alpha-1,4-glucan:maltose-1-phosphate maltosyltransferase (Mycobacterium tuberculosis (strain ATCC 25618 / H37Rv), UniProt P9WQ17)
T1 sequence (P9WQ17 whole entry): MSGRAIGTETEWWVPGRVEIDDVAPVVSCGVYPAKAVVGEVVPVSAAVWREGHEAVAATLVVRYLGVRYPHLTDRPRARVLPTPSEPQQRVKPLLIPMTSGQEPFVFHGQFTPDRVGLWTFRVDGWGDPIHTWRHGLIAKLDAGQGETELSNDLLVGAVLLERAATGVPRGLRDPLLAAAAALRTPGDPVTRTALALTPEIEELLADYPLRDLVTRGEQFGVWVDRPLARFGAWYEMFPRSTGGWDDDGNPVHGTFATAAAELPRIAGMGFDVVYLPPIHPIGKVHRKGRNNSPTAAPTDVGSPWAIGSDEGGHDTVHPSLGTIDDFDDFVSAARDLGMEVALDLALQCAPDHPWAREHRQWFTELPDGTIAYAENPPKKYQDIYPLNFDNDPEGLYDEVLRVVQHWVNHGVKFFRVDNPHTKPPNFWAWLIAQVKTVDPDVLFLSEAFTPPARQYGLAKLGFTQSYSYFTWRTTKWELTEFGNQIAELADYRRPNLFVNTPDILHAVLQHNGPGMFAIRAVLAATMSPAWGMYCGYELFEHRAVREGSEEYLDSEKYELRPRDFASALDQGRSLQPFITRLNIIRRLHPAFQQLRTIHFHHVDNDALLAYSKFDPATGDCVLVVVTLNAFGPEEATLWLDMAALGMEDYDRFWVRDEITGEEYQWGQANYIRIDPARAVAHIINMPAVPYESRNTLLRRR
Experiment: Inhibition of recombinant Mycobacterium tuberculosis H37Rv GlgE expressed in Escherichia coli BL21 (DE3) rosetta cells using maltose-1-phosphate as substrate measured every 5 secs for 30 mins by purine nucleoside phosphorylase-coupled assay

For `O=P(O)(O)C[C@H]1O[C@H](CO)[C@@H](O[C@H]2O[C@H](CO)[C@@H](O)[C@H](O)[C@H]2O)[C@H](O)[C@H]1O`, which IC50 is on record?
The IC50 was 230 µM.
